This is an account of results in PubChem BioAssay (NCI).

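1) Cells in 96-well plates. 2) Compound, 48 h, 5 concentrations. 3) Linear interpolation between surrounding doses. 4) Unreached endpoint = highest concentration. TGI: concentration producing complete growth inhibition.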

Test systems include CAKI-1 renal; CCRF-CEM leukemia; DLD-1 colon; DMS 273 small cell lung; HCT-15 colon; M19-MEL melanoma; MALME-3M melanoma; NCI-H460 lung; SF-539 CNS; SK-MEL-2 melanoma; SNB-78 CNS; MDA-MB-435.
Assay in all cases: NCI tumour cell line growth inhibition, 48 h

`N=C1c2ccccc2C(=O)c2c(NCCNCCO)ccc(O)c21`: the TGI in the assay on CAKI-1 renal was 26.5 µM; in the assay with CCRF-CEM leukemia it was 53.9 µM; in the assay with DLD-1 colon, 22.3 µM; with DMS 273 small cell lung, 18.9 µM; in the assay with HCT-15 colon, more than 63 µM; in the assay with M19-MEL melanoma it was 17.3 µM. The TGI in the assay with MALME-3M melanoma was 35.8 µM; in the assay on NCI-H460 lung, 15.1 µM; in the assay with SF-539 CNS, 16.3 µM; with SK-MEL-2 melanoma it was 33.5 µM; in the assay with SNB-78 CNS, more than 60 µM.
With `COC(=O)CC(C(C(=O)OCc1ccccc1)C(C)O)N1C(=O)OCC1c1ccccc1` (configuration not stated), the TGI in the assay with CCRF-CEM leukemia, with DLD-1 colon, in the assay on DMS 273 small cell lung, in the assay with HCT-15 colon, in the assay with M19-MEL melanoma and in the assay with MALME-3M melanoma was more than 100 µM each time. For the same compound, the TGI in the assay on NCI-H460 lung, in the assay with SF-539 CNS and in the assay on SK-MEL-2 melanoma was more than 100 µM each time.
With `CC1=C(O)C(=O)C2C(=O)C1C(C)C2c1ccccc1` (configuration not stated), the TGI with CAKI-1 renal, in the assay on CCRF-CEM leukemia, in the assay on DLD-1 colon, in the assay on DMS 273 small cell lung, in the assay with HCT-15 colon and in the assay on M19-MEL melanoma was more than 100 µM in each case. The TGI with MALME-3M melanoma, in the assay on SF-539 CNS, with SK-MEL-2 melanoma and in the assay with SNB-78 CNS was more than 100 µM throughout.
As to `O=C([O-])c1ccccc1Nc1ccccc1C(=O)[O-].[OH3+].[Zn+2]`, the TGI with CAKI-1 renal is 8.45 µM; with CCRF-CEM leukemia, 61.6 µM; in the assay with DLD-1 colon it was more than 83.7 µM; with DMS 273 small cell lung it was 29.2 µM; in the assay with HCT-15 colon it was more than 100 µM; in the assay on M19-MEL melanoma, 50.1 µM. Moreover, the TGI was 50.5 µM in the assay with MALME-3M melanoma; more than 100 µM in the assay on NCI-H460 lung; more than 82.9 µM with SF-539 CNS; 40.4 µM in the assay on SK-MEL-2 melanoma; more than 87.1 µM with SNB-78 CNS.
With `[N-]=[N+]=C1C(=O)C2CC3CC1CC2C3` (configuration not stated), the TGI with CAKI-1 renal, in the assay with CCRF-CEM leukemia, with DLD-1 colon, with DMS 273 small cell lung, in the assay on HCT-15 colon and in the assay on M19-MEL melanoma was more than 100 µM in each case. Further, the TGI with MALME-3M melanoma, in the assay with NCI-H460 lung, with SF-539 CNS, with SK-MEL-2 melanoma and in the assay on SNB-78 CNS was more than 100 µM in each case.
`COC1CC(O[C@H]2CC[C@@]3(C)C(=CCC4(O)C3CCC35C(=O)OC6(C)O[C@@]43CCC65)C2)OC(C)C1O` (some centres not stated): the TGI with CAKI-1 renal, in the assay with CCRF-CEM leukemia, with DLD-1 colon, in the assay on DMS 273 small cell lung, with HCT-15 colon and in the assay with M19-MEL melanoma was more than 100 µM in each case. The TGI in the assay with MALME-3M melanoma, in the assay with NCI-H460 lung, in the assay on SF-539 CNS, with SK-MEL-2 melanoma and with SNB-78 CNS was more than 100 µM in each case.
As to `CO/S(=N/S(=O)(=O)c1ccccc1)c1ccccc1[N+](=O)[O-]` (configuration not stated), the TGI in the assay with CAKI-1 renal, with CCRF-CEM leukemia, with DLD-1 colon, in the assay with DMS 273 small cell lung, in the assay on HCT-15 colon and with M19-MEL melanoma was more than 100 µM in each case. The TGI in the assay with MALME-3M melanoma, in the assay on NCI-H460 lung, in the assay with SF-539 CNS and with SK-MEL-2 melanoma was more than 100 µM in each case.
For the compound `CC1=C/C(=N\NS(=O)(=O)c2ccc([N+](=O)[O-])cc2)CC(C)(C)C1`, the TGI in the assay with CAKI-1 renal, in the assay on CCRF-CEM leukemia, in the assay with HCT-15 colon, in the assay on MALME-3M melanoma, in the assay on MDA-MB-435 and with NCI-H460 lung was more than 100 µM throughout. In addition, the TGI in the assay with SF-539 CNS and in the assay on SK-MEL-2 melanoma was more than 100 µM each time.
Turning to `CC(C)(C)c1ccc(NS(=O)(=O)c2ccc(N)cc2)cc1`, the TGI was 99.4 µM with CAKI-1 renal; 40.2 µM in the assay with CCRF-CEM leukemia; more than 100 µM with HCT-15 colon; 39.6 µM with MALME-3M melanoma; 73.5 µM with MDA-MB-435; more than 100 µM in the assay on NCI-H460 lung. Besides, the TGI in the assay with SF-539 CNS came to 41.7 µM; with SK-MEL-2 melanoma, 36.5 µM.
Take `COC(=O)c1ccc(NCC2=CC(=O)C=CC2=O)cc1O`: the TGI was 32.8 µM with CAKI-1 renal; more than 100 µM in the assay with CCRF-CEM leukemia; 34.5 µM in the assay on HCT-15 colon; 28.6 µM in the assay on MALME-3M melanoma; 82.9 µM in the assay with MDA-MB-435; 43.4 µM in the assay on NCI-H460 lung. The TGI is 28 µM in the assay on SF-539 CNS and more than 100 µM with SK-MEL-2 melanoma.
On to `O=CC1=CCCN(CCc2c[nH]c3ccccc23)C1`, for which the TGI in the assay on CAKI-1 renal was 141 µM; in the assay with CCRF-CEM leukemia, more than 393 µM; with DLD-1 colon, 111 µM; with DMS 273 small cell lung, 94.4 µM; with HCT-15 colon it was 83.2 µM; in the assay on M19-MEL melanoma, 152 µM. For the same compound, the TGI with MALME-3M melanoma came out at 122 µM; with NCI-H460 lung, 105 µM; in the assay with SF-539 CNS, 108 µM; in the assay on SK-MEL-2 melanoma, 119 µM.
Regarding `Cc1ccc2c(ccc3ncc(CNc4ccc(NS(C)(=O)=O)cc4)c32)[nH]1`, the TGI in the assay with CAKI-1 renal is 58 µM; in the assay on CCRF-CEM leukemia it was more than 100 µM; in the assay with HCT-15 colon, more than 100 µM; in the assay on MALME-3M melanoma, 34.5 µM; in the assay with MDA-MB-435 it was 31.5 µM; with NCI-H460 lung, 35.4 µM. The TGI with SF-539 CNS turned out to be 50.5 µM; in the assay with SK-MEL-2 melanoma, 38.5 µM.
As for `O=C1/C(=C/c2ccc([N+](=O)[O-])cc2)CCCc2ccccc21`, the TGI in the assay on CAKI-1 renal, with CCRF-CEM leukemia, in the assay on HCT-15 colon, in the assay with MALME-3M melanoma, with MDA-MB-435 and in the assay with NCI-H460 lung was more than 100 µM each time. The TGI in the assay on SF-539 CNS and with SK-MEL-2 melanoma was more than 100 µM throughout.
With `NS(=O)(=O)c1ccc(N=Nc2ccc(O)cc2)cc1`, the TGI with CAKI-1 renal, in the assay with CCRF-CEM leukemia, in the assay with HCT-15 colon, with MALME-3M melanoma, with MDA-MB-435 and with NCI-H460 lung was more than 100 µM throughout. Besides, the TGI in the assay with SF-539 CNS and in the assay with SK-MEL-2 melanoma was more than 100 µM each time.
On to `O=C(O)CN1CCN2CCCCCCCCN(CC1)CCN(CC(=O)O)CC2`, for which the TGI with CAKI-1 renal, with CCRF-CEM leukemia, in the assay on HCT-15 colon, with MALME-3M melanoma, in the assay on MDA-MB-435 and in the assay with NCI-H460 lung was more than 100 µM in each case. The TGI in the assay on SF-539 CNS and in the assay on SK-MEL-2 melanoma was more than 100 µM each time.
Regarding `Cc1cc(-c2nc3ccc(F)cc3s2)ccc1NC(=O)C(N)CCCCN` (configuration not stated), the TGI in the assay with CAKI-1 renal was 24.9 µM; in the assay on CCRF-CEM leukemia it was 7.68 µM; with HCT-15 colon, 23.6 µM; in the assay on MALME-3M melanoma, 34.1 µM; in the assay on MDA-MB-435, 5.34 µM; with NCI-H460 lung, 5.64 µM. The TGI in the assay on SF-539 CNS was determined as 7.75 µM; in the assay with SK-MEL-2 melanoma it was 23.1 µM.
On to `CSc1nc2nccnc2c(=O)[nH]1`, for which the TGI in the assay with CAKI-1 renal, with CCRF-CEM leukemia, in the assay with DLD-1 colon, with DMS 273 small cell lung, in the assay on HCT-15 colon and in the assay with M19-MEL melanoma was more than 100 µM throughout. The TGI with MALME-3M melanoma, in the assay on NCI-H460 lung and with SK-MEL-2 melanoma was more than 100 µM throughout.
`C/C(CC(O)(C(F)(F)F)C(F)(F)F)=N\NC(N)=S`: the TGI with CAKI-1 renal, in the assay on CCRF-CEM leukemia, in the assay with HCT-15 colon, in the assay with MALME-3M melanoma, with MDA-MB-435 and with NCI-H460 lung was more than 10 µM throughout. Besides, the TGI with SF-539 CNS and in the assay on SK-MEL-2 melanoma was more than 10 µM each time.
On to `CC1(C)C(CBr)=[N+]([O-])C(C)(C)N1O`, for which the TGI was 5.87 µM in the assay with CAKI-1 renal; 4.49 µM with CCRF-CEM leukemia; more than 8.12 µM in the assay with HCT-15 colon; 7.06 µM in the assay on MALME-3M melanoma; more than 8.08 µM in the assay on MDA-MB-435; more than 10 µM in the assay with NCI-H460 lung. In addition, the TGI with SF-539 CNS was more than 7.83 µM; in the assay on SK-MEL-2 melanoma it was more than 10 µM.
For `CC1=C(C(=O)O)N2C(=O)[C@@H](NC(=O)C(c3ccccc3)N3CSC(=S)N(C(C)C)C3)C2SC1` (some centres not stated), the TGI in the assay on CAKI-1 renal, in the assay with CCRF-CEM leukemia, with DLD-1 colon, with DMS 273 small cell lung, in the assay with HCT-15 colon and in the assay with M19-MEL melanoma was more than 100 µM in each case. Further, the TGI with MALME-3M melanoma, with NCI-H460 lung, in the assay on SF-539 CNS, with SK-MEL-2 melanoma and with SNB-78 CNS was more than 100 µM throughout.
On to `Cn1c2ccccc2c2c3c(c4c5ccccc5n(C)c4c21)C(=O)N(Cc1ccccc1)C3=O`, for which the TGI with CAKI-1 renal, in the assay on CCRF-CEM leukemia, in the assay with HCT-15 colon, in the assay with MALME-3M melanoma, in the assay with MDA-MB-435 and in the assay with NCI-H460 lung was more than 100 µM each time. The TGI in the assay with SF-539 CNS and in the assay with SK-MEL-2 melanoma was more than 100 µM in each case.
As for `COc1ccc(/C(=N/OCCCC(=O)O)c2cccs2)cc1`, the TGI in the assay on CAKI-1 renal, in the assay with CCRF-CEM leukemia, with HCT-15 colon, with MALME-3M melanoma, in the assay with MDA-MB-435 and with NCI-H460 lung was more than 100 µM each time. Moreover, the TGI in the assay with SF-539 CNS and with SK-MEL-2 melanoma was more than 100 µM in each case.
In the case of `CCCNC(=O)Cn1c2c(c3ccccc31)CCCC2`, the TGI with CAKI-1 renal, in the assay with CCRF-CEM leukemia, in the assay with HCT-15 colon, with MALME-3M melanoma, in the assay on MDA-MB-435 and in the assay with NCI-H460 lung was more than 100 µM in each case. Moreover, the TGI in the assay with SF-539 CNS and in the assay with SK-MEL-2 melanoma was more than 100 µM in each case.
